# Tests used:
# EGFR [1] = target: T1, EGFR (Homo sapiens, UniProt P00533); assay: EGFR tyrosine phosphorylation assay in hTCEpi cells with a second active agent; format: cell-based; details: vitamin K 50 μM, nicotinic acid 10 μM or nicotinamide 10 μM, 4 hours pre-treatment, EGF 50 ng/ml
# T1 construct: endogenous in cells; host or cells: hTCEpi (immortalized corneal epithelial cells)
# Description: An EGFR tyrosine assay in corneal epithelial cells is run to determine if Vitamin K or nicotinic acid/nicotinamide can overcome inhibition of EGFR and if there is an increase in EGFR activity. […] Cells are harvested cells and immunoblotted for determination of phosphorylated EGFR (tyrosine 1068 and tyrosine 1045) and total EGFR concentration which was used to determine receptor activity (IC50).
# The cells were then incubated with EGF (50 ng/ml) for 15 minutes. Cells were harvested and cell lysates were immunoblotted for determination of phosphorylated EGFR (tyrosine 1068 and tyrosine 1045) and total EGFR concentration.
# [2] = Ocular pharmacokinetics of formulations, Example 20-5; format: in vivo, Dutch Belted rabbits
# Description: The study design (Table 19-1) consisted of forty-seven (47) Dutch Belted rabbits, each receiving a 30 μL bilateral topical ocular dose. Various suspension formulations of the present application were evaluated and compared against a cyclodextrin-based eye drops solution (Control Group 1, Table 19-1). Formula II or Compound-I was used in the test suspensions as well as the Eye Drops solution.
# (§1) Ocular sampling occurred one hour following the first daily dose on Day 5 for all groups. Whole blood samples using K2EDTA as an anticoagulant were collected from all animals on Day 5, 1 hour post dose. The whole blood was placed on ice until samples were spun in a centrifuge to separate the plasma. Aqueous humor, conjunctiva, cornea, central retina, peripheral retina, central choroid, and peripheral choroid samples were collected following necropsy. Samples were then frozen at −70° C. or lower. For all Groups 1-15, plasma, central retina, central choroid, and cornea samples were assayed. For Group 5 only, samples were analyzed for Vitamin K3.
# An analytical method for the analysis of Vitamin K3 was determined in plasma, central retina, central choroid, and cornea samples from Group 5 animals. A calibration curve prepared in control vitreous humor was used to determine the concentration of Vitamin K3. Internal standard (IS) responses were inconsistent for the central choroid and plasma samples. Thus, positive plasma results were likely due to the reduced IS response.
# corneas of C57/Bl mice = assay: Corneal wound healing in vivo with a second active agent; details: 0.3 μM menadione, 48 hours pre-treatment
# Description: Determination of the effects of a compound of Formula I or II and/or a second active agent on corneal wound healing was determined in mice. Corneas of C57/Bl mice are wounded and then pre-treated with a compound of Formula I or II, followed by addition of EGF, vitamin K, or nicotinic acid/nicotinamide. Wound size and closure are monitored.
# Corneas of 8 week old C57/Bl mice were pre-treated with topical administration of vehicle, 0.3 μM menadione, 10 μM of a compound of Formula I or II, 0.3 μM menadione and 10 μM of a compound of Formula I or II 48 hours before the corneas were wounded (1.5 mm superficial epithelial wound). Wound size was monitored by fluorescein staining and fluorescent photography. Wound closure was monitored over the course of 40 hours.
# hTCEpi cells = assay: Cell migration/proliferation (in vitro wound healing) in hTCEpi cells: compound and second active agent; format: cell-based; details: 0.3 μM menadione
# Description: Determination of cell migration/proliferation in corneal epithelial cells is run to determine cell migration/proliferation in the presence of varying concentrations of a compound of Formula I or II, vitamin K, or nicotinic acid/nicotinamide. Cells are plated with silicone plugs. The cells are then serum starved and pre-treated with varying concentrations of a compound of Formula I or II or a control. The plugs are removed and the cells are treated with 1) EGF, 2) EGF and vitamin K or 3) EGF and nicotinic acid/nicotinamide. Cell migration is quantified from micrographs.
# hTCEpi cells were plated with silicone plugs. The cells were then serum starved and pre-treated with varying concentrations of vitamin K3 analog, menadione, for 4 hours and supplemented with the varying concentrations of a compound of Formula I or II for 30 minutes. The plugs were removed. The cells were photographed and then treated with various concentrations of vitamin K, EGF, and/or a compound of Formula I or II. The cells were again photographed and cell migration was quantified from the micrographs. Additional controls run included no compound of Formula I or II and no EGF. All experiments were repeated three times.
# EGFR [3] = target: T1, EGFR; assay: Mechanism by which menadione enhances EGFR activity (hTCEpi immunoblot); format: cell-based; parameters: Kinetics of EGFR degradation: dose or concentration left out as unconfirmed
# Description: […] Cells were then incubated with 8.0 nM (50 ng/ml) EGF for 0-3 hours. The cells were lysed and the lysates were resolved by SDS-PAGE, and immunoblotted for phosphorylated EGFR (pY1068), total EGFR, or α-tubulin.
# [4] = Particle size distribution by laser diffraction light scattering; format: physicochemical; details: 5% menadione, HPMC formulation, roller milled; 40° C.
# Description: Particle size distribution can be analyzed using laser diffraction light scattering, e.g., with a Horiba LA-950 V2. Generic assumptions are made in setting conditions and the refractive index value. The distributions are volume based. Sample density is adjusted to a generic range of percent transmission on the blue LED light source. A small sample cell (filled with water) can be used rather than the flow through cell, to minimize sample quantity.
# Particle size distribution was analyzed using laser diffraction light scattering with a Horiba LA-950 V2. Generic assumptions were made in setting conditions and the refractive index value. The distributions were volume based. Sample density was adjusted to a generic range of percent transmission on the blue LED light source. A small sample cell (filled with water) was used rather than the flow through cell, to minimize sample quantity.
# [5] = Ocular pharmacokinetics of formulations, Example 20-3; format: in vivo, Dutch Belted rabbits; details: 1.0 μM Vit K3 suspension, 30 μL/eye/dose QD for 4 Days, 1 hr post dose on Day 5; for Vitamin K3 concentration in Cornea: LLOQ = 2.91 μM; for Vitamin K3 concentration in Central Choroid: LLOQ = 43.6 μM
# Description: The study design (Table 17-1) consisted of thirty-nine (39) Dutch Belted rabbits, each receiving a 30 μL bilateral topical ocular dose. Various suspension formulations of the present application were evaluated and compared against two control formulations: a) a cyclodextrin-based eye drops solution (Control Group 13, Table 17-1), and b) a pilot suspension formulation used in previous rabbit pharmacokinetic studies, (Group 10, Table 17-1). Formula II or Compound-I was used in the test suspensions, whereas the Eye Drops solution formulation is derived with the Compound-I.
# as §1, with “1-13,” for “1-15,”, “assayed.” for “assayed. For Group 5 only, samples were analyzed for Vitamin K3.”
# Additionally, Vitamin K3 concentrations were determined in plasma, central retina, central choroid, and cornea samples for animals from Groups 8 and 9. A calibration curve prepared in control matrix was used to determine the concentration of Vitamin K3.
# [6] = Group 8: Formula II 4 mg/mL, HPMC
# [7] = Group 9: Formula II 4 mg/mL, Pluronic
# T1 sequence (P00533 25-1210): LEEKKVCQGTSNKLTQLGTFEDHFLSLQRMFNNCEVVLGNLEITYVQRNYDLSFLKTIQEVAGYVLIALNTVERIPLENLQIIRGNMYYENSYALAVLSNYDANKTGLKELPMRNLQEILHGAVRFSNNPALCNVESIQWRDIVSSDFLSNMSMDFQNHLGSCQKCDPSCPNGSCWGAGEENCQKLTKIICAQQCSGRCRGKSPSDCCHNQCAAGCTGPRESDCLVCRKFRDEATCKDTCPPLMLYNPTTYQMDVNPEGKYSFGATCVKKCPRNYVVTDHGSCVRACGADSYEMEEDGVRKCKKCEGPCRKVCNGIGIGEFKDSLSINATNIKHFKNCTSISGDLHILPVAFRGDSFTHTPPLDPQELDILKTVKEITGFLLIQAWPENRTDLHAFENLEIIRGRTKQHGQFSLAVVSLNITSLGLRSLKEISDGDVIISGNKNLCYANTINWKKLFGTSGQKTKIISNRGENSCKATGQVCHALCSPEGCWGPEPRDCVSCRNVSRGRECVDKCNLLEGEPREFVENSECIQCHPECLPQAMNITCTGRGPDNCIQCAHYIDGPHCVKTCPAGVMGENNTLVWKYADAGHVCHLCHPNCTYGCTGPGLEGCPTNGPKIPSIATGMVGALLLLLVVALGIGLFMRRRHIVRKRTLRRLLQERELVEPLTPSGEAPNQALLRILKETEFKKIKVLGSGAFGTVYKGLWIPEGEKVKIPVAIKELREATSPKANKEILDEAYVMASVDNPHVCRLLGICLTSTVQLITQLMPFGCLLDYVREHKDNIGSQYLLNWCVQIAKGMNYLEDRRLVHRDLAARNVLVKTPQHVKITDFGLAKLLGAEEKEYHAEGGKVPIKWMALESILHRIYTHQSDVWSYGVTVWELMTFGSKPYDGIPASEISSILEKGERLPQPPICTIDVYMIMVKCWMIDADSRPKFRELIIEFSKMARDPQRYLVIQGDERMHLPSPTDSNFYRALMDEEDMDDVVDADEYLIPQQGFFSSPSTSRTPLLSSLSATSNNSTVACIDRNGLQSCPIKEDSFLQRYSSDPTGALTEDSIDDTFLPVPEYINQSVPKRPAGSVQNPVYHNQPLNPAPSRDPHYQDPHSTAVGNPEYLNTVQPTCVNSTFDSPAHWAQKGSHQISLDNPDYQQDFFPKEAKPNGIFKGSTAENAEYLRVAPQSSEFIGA
structure (smiles),measurement,setting,value
CC1=CC(=O)c2ccccc2C1=O [menadione],Effect on Formula I or II compound-mediated EGFR inhibition,EGFR [1],overcome
same,Effect on Formula I or II compound-mediated EGFR inhibition,EGFR [1]; listed as vitamin K3,most effectively attenuated
same,Vitamin K3 in central retina and cornea samples,[2]; Group 5,no quantitative results
same,Vitamin K3 Cornea concentration,"[2]; Group 5: Compound-I 4 mg/mL suspension with Vitamin K3 1 μM, QD for 4 days, 1 hr post dose on Day 5, LLOQ = 0.145 μM",<LLOQ
same,Vitamin K3 Central Retina concentration,"[2]; Group 5: Compound-I 4 mg/mL suspension with Vitamin K3 1 μM, QD for 4 days, 1 hr post dose on Day 5, LLOQ = 0.581 μM",<LLOQ
same,Effect on corneal epithelial wound healing after pre-treatment with a compound of Formula I or II (10 μM),corneas of C57/Bl mice,reversed the effects
same,Effect on inhibition of in vitro wound healing by a compound of Formula I or II,hTCEpi cells,reversed
same,Basal EGFR phosphorylation and EGFR dephosphorylation,"EGFR [3]; 0.3 or 3.0 μM, 4 hours, 50 ng/ml EGF 0-3 hours",did not change
same,Kinetics of EGFR degradation,EGFR [3]; menadione,slowed the kinetics of EGFR degradation
same,Stability of suspension,[4],short term stability
same,Vitamin K3 concentration in Cornea,[5]; [6],<LLOQ
same,Vitamin K3 concentration in Central Choroid,[5]; [6],<LLOQ
same,Vitamin K3 concentration in Plasma,"[5]; Group 8: Formula II 4 mg/mL, HPMC, average n = 3, LLOQ = 0.291 μM",<LLOQ
same,Vitamin K3 concentration in Cornea,[5]; [7],<LLOQ
same,Vitamin K3 concentration in Central Retina,"[5]; Group 9: Formula II 4 mg/mL, Pluronic, LLOQ = 11.6 μM",<LLOQ
same,Vitamin K3 concentration in Central Choroid,[5]; [7],<LLOQ
